Source: US10633407B2, “14-membered ketolides and methods of their preparation and use” (President and Fellows of Harvard College, priority 2014, dated 2020)
Converted amounts (≈) assume the structure as drawn.

What was measured:
Assay in all cases: CLSI broth dilution MIC determination
Format in all cases: cell-based
E. coli ATCC 25922 = tested on: E. coli ATCC 25922
Source text: (§1) MIC data was collected for the novel macrolides that this platform has produced against over 21 unique strains of B. subtilis, E. coli, S. aureus, S. pneumoniae, and H. influenzae, including several multidrug-resistant strains, with a special focus on macrolide resistant mechanisms (vide supra). Azithromycin (Azithro) and Solithromycin (Solithro) were included as a control macrolides in many cases. CLSI standard procedures for broth dilution MIC determination were used. […] These genotypes can be constitutive or inducible.

[1] = tested on: E. coli MP-532 clinical-cErmB; conditions: E. coli MP-532, clinical-cErmB
Source text: as §1

E. coli MP-541 clinical = tested on: E. coli MP-541 clinical
Source text: as §1

[2] = tested on: E. coli MP-9 ATCC25922:tolC; conditions: E. coli MP-9, ATCC25922:tolC
Source text: as §1

[3] = tested on: S. aureus (MRSA) MP-513 ST-228 cErm (Clinical-cErm)
Source text: as §1

S. aureus ATCC 29213 = tested on: S. aureus ATCC 29213
Source text: as §1

[4] = tested on: S. aureus MP-17 ATCCBAA-977 (BAA 977 iErm); conditions: S. aureus MP-17, ATCCBAA-977, iErm
Source text: as §1

S. aureus MRSA: USA300 = tested on: S. aureus MRSA: USA300
Source text: as §1

A. baumannii ATCC 19606 = tested on: A. baumannii ATCC 19606
K. pneumoniae ATCC 10031 = tested on: K. pneumoniae ATCC 10031
P. aeruginosa ATCC 27853 = tested on: P. aeruginosa ATCC 27853
P. aeruginosa MP-7 PAO1 = tested on: P. aeruginosa MP-7 PAO1
[5] = tested on: P. aeruginosa MP-8 PAO1:mex (mex-oprM-deletion); conditions: P. aeruginosa MP-8, PAO1:mex, mex-oprM-deletion
[6] = tested on: K. pneumoniae MP-548 clinical
[7] = tested on: K. pneumoniae MP-546 Clinical-MDR
[8] = tested on: A. baumannii MP-577 Clinical-AZT low
[9] = tested on: A. baumannii MP-576 Clinical-MDR
E. coli CTX-M-14 = conditions: Gram-negative
Source text: as §1

E. coli NDM-1 = conditions: Gram-negative
Source text: as §1

E. coli TEM-1 = conditions: E. coli TEM-1; Gram-negative
Source text: as §1

H. influenzae ATCC49247 = conditions: Gram-negative
Source text: as §1

K. pneumoniae TEM-10 = conditions: Gram-negative
Source text: as §1

S. aureus MRSA: USA100 = conditions: S. aureus MRSA: USA100; Gram-positive
Source text: as §1

S. aureus USA600, GISA = conditions: S. aureus USA600, GISA; Gram-positive
Source text: as §1

S. aureus erm A genotype = conditions: S. aureus erm A genotype; Gram-positive
Source text: as §1

S. pneumoniae ATCC 49619 = conditions: S. pneumoniae ATCC 49619; Gram-positive
Source text: as §1

[10] = tested on: S. pneumoniae mef A genotype (second strain so labelled); conditions: Gram-positive
Source text: as §1

S. pyogenes ATCC 19615 = conditions: S. pyogenes ATCC 19615; Gram-positive
[11] = tested on: S. pyogenes Macrolide-resistant; conditions: S. pyogenes Macrolide-resistant; Gram-positive
E. faecalis ATCC 29212 = conditions: E. faecalis ATCC 29212; Gram-positive
[12] = tested on: E. faecalis Vancomycin-resistant; conditions: E. faecalis Vancomycin-resistant; Gram-positive
[13] = tested on: A. baumannii imipenem-resistant; conditions: Gram-negative
[14] = tested on: A. baumannii chromosomal class C; conditions: Gram-negative
A. baumannii IMP-4 = conditions: Gram-negative
K. pneumoniae KPC-2 = conditions: Gram-negative
K. pneumoniae SHV-12 = conditions: Gram-negative
[15] = tested on: P. aeruginosa HPA101-1477; conditions: Gram-negative
[16] = tested on: H. influenzae Erythro >4, Azithro 1; conditions: H. influenzae Erythro >4, Azithro 1; Gram-negative
Source text: as §1, with “Azithromycin (Azithro) and Solithromycin (Solithro) were included as a control macrolides in many cases.” left out

[17] = E. coli ATCC 25922, Gram-negative
[18] = S. aureus ATCC 29213, Gram-positive
[19] = S. aureus MRSA: USA300, Gram-positive
[20] = A. baumannii ATCC 19606, Gram-negative
[21] = K. pneumoniae ATCC 10031, Gram-negative
[22] = P. aeruginosa ATCC 27853, Gram-negative

| Compound | MIC (E. coli ATCC 25922; [17]) [µg/mL] | MIC (E. coli CTX-M-14) [µg/mL] | MIC (E. coli NDM-1) [µg/mL] | MIC (E. coli TEM-1) [µg/mL] | MIC (H. influenzae ATCC49247) [µg/mL] | MIC (K. pneumoniae TEM-10) [µg/mL] | MIC (S. aureus ATCC 29213; [18]) [µg/mL] | MIC (S. aureus MRSA: USA100) [µg/mL] | MIC (S. aureus MRSA: USA300; [19]) [µg/mL] | MIC (S. aureus USA600, GISA) [µg/mL] | MIC (S. aureus erm A genotype) [µg/mL] | MIC (S. pneumoniae ATCC 49619) [µg/mL] | MIC [10] [µg/mL] | MIC (S. pyogenes ATCC 19615) [µg/mL] | MIC [11] [µg/mL] | MIC (E. faecalis ATCC 29212) [µg/mL] | MIC [12] [µg/mL] | MIC (A. baumannii ATCC 19606; [20]) [µg/mL] | MIC [13] [µg/mL] | MIC [14] [µg/mL] | also measured |
| --- | --- | --- | --- | --- | --- | --- | --- | --- | --- | --- | --- | --- | --- | --- | --- | --- | --- | --- | --- | --- | --- |
| CCC1OC(=O)C(C)(F)C(=O)C(C)C(OC2OC(C)CC(N(C)C)C2O)C(C)(OC)CC(C)C(=O)C(C)C2N(CC=C=Cn3cc(-c4cnccn4)nn3)C(=O)OC12C (centres unmarked) [FSM-22740] |  |  |  |  |  |  |  |  |  |  |  |  |  |  |  |  |  |  |  |  | MIC (E. coli ATCC 25922; E. coli ATCC 25922 (MP-4)): 16 µg/mL (≈ 19.3 µM); MIC [1]: >64 µg/mL; MIC (E. coli MP-541 clinical): 16 µg/mL (≈ 19.3 µM); MIC [2]: 2 µg/mL (≈ 2.42 µM); MIC [3]: 64 µg/mL (≈ 77.3 µM); MIC (S. aureus ATCC 29213; S. aureus ATCC 29213 (MP-12)): 0.25 µg/mL (≈ 0.302 µM); MIC [4]: 0.25 µg/mL (≈ 0.302 µM); MIC (S. aureus MRSA: USA300; S. aureus MRSA: USA300 (MP-549, msr(a))): 0.25 µg/mL (≈ 0.302 µM); MIC (A. baumannii ATCC 19606; A. baumannii ATCC 19606 (MP-15)): 16 µg/mL (≈ 19.3 µM); MIC (K. pneumoniae ATCC 10031; K. pneumoniae ATCC 10031 (MP-14)): 8 µg/mL (≈ 9.66 µM); MIC (P. aeruginosa ATCC 27853; P. aeruginosa ATCC 27853 (MP-3)): >64 µg/mL; MIC (P. aeruginosa MP-7 PAO1): >64 µg/mL; MIC [5]: 16 µg/mL (≈ 19.3 µM); MIC [6]: >64 µg/mL; MIC [7]: >64 µg/mL; MIC [8]: 64 µg/mL (≈ 77.3 µM); MIC [9]: >64 µg/mL |
| CC[C@H]1OC(=O)[C@@](C)(F)C(=O)[C@H](C)[C@@H](O[C@@H]2OC(C)CC(N(C)C)C2O)[C@](C)(OC)C[C@@H](C)C(=O)[C@H](C)[C@H]2N(C/C=C/Cn3cc(-c4ccccn4)nn3)C(=O)O[C@]12C (some centres unmarked) [FSM-100383] | 8 (≈ 9.65 µM) | > 32 | 32 (≈ 38.6 µM) | 16 (≈ 19.3 µM) | 0.5 (≈ 0.603 µM) | 16 (≈ 19.3 µM) | < 0.0312 | > 32 | 0.5 (≈ 0.603 µM) | > 32 | > 32 | < 0.0312 | < 0.0312 | < 0.0312 | < 0.0312 | < 0.0312 | > 32 | 4 (≈ 4.83 µM) | 8 (≈ 9.65 µM) | 8 (≈ 9.65 µM) | MIC (A. baumannii IMP-4): > 32 µg/mL; MIC (K. pneumoniae ATCC 10031; [21]): 2 µg/mL (≈ 2.41 µM); MIC (K. pneumoniae KPC-2): > 32 µg/mL; MIC (K. pneumoniae SHV-12): > 32 µg/mL; MIC (P. aeruginosa ATCC 27853; [22]): > 32 µg/mL; MIC [15]: > 32 µg/mL; MIC [16]: 0.5 µg/mL (≈ 0.603 µM) |
| CC[C@H]1OC(=O)[C@@](C)(F)C(=O)[C@H](C)[C@@H](O[C@@H]2OC(C)CC(N(C)C)C2O)[C@](C)(OC)C[C@@H](C)C(=O)[C@H](C)[C@H]2N(C/C=C/Cn3cc(-c4cccc(N)n4)nn3)C(=O)O[C@]12C (some centres unmarked) [FSM-100407] | 16 (≈ 19 µM) | > 32 | > 32 | > 32 | 1 (≈ 1.18 µM) | 32 (≈ 37.9 µM) | < 0.0312 | > 32 | 0.5 (≈ 0.592 µM) | > 32 | > 32 | < 0.0312 | < 0.0312 | < 0.0312 | < 0.0312 | < 0.0312 | 16 (≈ 19 µM) | 8 (≈ 9.48 µM) | 8 (≈ 9.48 µM) | 8 (≈ 9.48 µM) | MIC (A. baumannii IMP-4): > 32 µg/mL; MIC (K. pneumoniae ATCC 10031; [21]): 4 µg/mL (≈ 4.74 µM); MIC (K. pneumoniae KPC-2): > 32 µg/mL; MIC (K. pneumoniae SHV-12): > 32 µg/mL; MIC (P. aeruginosa ATCC 27853; [22]): 32 µg/mL (≈ 37.9 µM); MIC [15]: > 32 µg/mL; MIC [16]: 1 µg/mL (≈ 1.18 µM) |
| CC[C@H]1OC(=O)[C@H](C)C(=O)[C@H](C)[C@@H](O[C@@H]2OC(C)CC(N(C)C)C2O)[C@](C)(OC)C[C@@H](C)C(=O)[C@H](C)[C@H]2N(C/C=C/Cn3cnc(-c4ccccn4)c3)C(=O)O[C@]12C (some centres unmarked) [FSM-100421] | 32 (≈ 39.5 µM) | > 32 | > 32 | 32 (≈ 39.5 µM) | 2 (≈ 2.47 µM) | 32 (≈ 39.5 µM) | 0.0625 (≈ 0.0772 µM) | > 32 | 2 (≈ 2.47 µM) | > 32 | > 32 | < 0.0312 | 0.0625 (≈ 0.0772 µM) | < 0.0312 | < 0.0312 | < 0.0312 | 32 (≈ 39.5 µM) | 16 (≈ 19.8 µM) | 16 (≈ 19.8 µM) | 32 (≈ 39.5 µM) | MIC (A. baumannii IMP-4): > 32 µg/mL; MIC (K. pneumoniae ATCC 10031; [21]): 4 µg/mL (≈ 4.94 µM); MIC (K. pneumoniae KPC-2): > 32 µg/mL; MIC (K. pneumoniae SHV-12): > 32 µg/mL; MIC (P. aeruginosa ATCC 27853; [22]): > 32 µg/mL; MIC [15]: > 32 µg/mL; MIC [16]: 1 µg/mL (≈ 1.23 µM) |
